ChEMBL document CHEMBL2417551, “Structure-guided design of novel thiazolidine inhibitors of O-acetyl serine sulfhydrylase from Mycobacterium tuberculosis” (J Med Chem, 2013)

biological target: O-acetylserine sulfhydrylase (Mycobacterium tuberculosis) (UniProt P9WP55); settings: at 500 nM
Description: Inhibition of Mycobacterium tuberculosis N-terminal His-6-tagged recombinant CysK1 expressed in Escherichia coli BL21 (DE3) at 500 nM after 20 mins by spectrophotometric analysis

SMILES | inhibition [%]
CN1C(=O)/C(=C/c2ccccc2OCc2ccccc2)S/C1=N\c1cccc(C(=O)O)c1 | 44.8
COC(=O)COc1ccc(/C=C2\S/C(=N\c3cccc(C(C)=O)c3)N(C(C)C)C2=O)cc1 | 7.4
CN1C(=O)/C(=C/c2cccc(C(F)(F)F)c2)S/C1=N\c1cccc(C(=O)O)c1 | 26.1
CCN1C(=O)/C(=C/c2ccccc2OCc2ccccc2)S/C1=N\c1cccc(C(=O)O)c1 | 59.3
COC(=O)COc1ccc(/C=C2\S/C(=N\c3cccc(C(=O)O)c3)N(C(C)C)C2=O)cc1 | 0
CCN1C(=O)/C(=C/c2ccccc2O)S/C1=N\c1cccc(C(=O)O)c1 | 53.2
CCN1C(=O)/C(=C/c2ccccc2OC)S/C1=N\c1cccc(C(=O)O)c1 | 59.5
C=CCN1C(=O)/C(=C/c2ccc(O)cc2)S/C1=N\c1cccc(C(C)=O)c1 | 28.9
CCN1C(=O)/C(=C/c2ccc(Cl)cc2Cl)S/C1=N\c1cccc(C(=O)O)c1 | 45.4
CCN1C(=O)/C(=C/c2ccc(C(F)(F)F)cc2)S/C1=N\c1cccc(C(=O)O)c1 | 50.8
CC(C)N1C(=O)/C(=C/c2ccccc2OCC(=O)O)S/C1=N\c1cccc(C(=O)O)c1 | 18.5
CC(C)c1ccc(/C=C2\S/C(=N\c3cccc(C(=O)O)c3)N(C)C2=O)cc1 | 54
CCN1C(=O)/C(=C/c2ccc[nH]2)S/C1=N\c1cccc(C(=O)O)c1 | 32.5
CCN1C(=O)/C(=C/c2ccccc2C)S/C1=N\c1cccc(C(=O)O)c1 | 47
CCN1C(=O)/C(=C/c2ccccc2OCC(=O)OC)S/C1=N\c1cccc(C(=O)O)c1 | 31
CN1C(=O)/C(=C/c2c[nH]c3ccccc23)S/C1=N\c1cccc(C(=O)O)c1 | 73.5
CCN1C(=O)/C(=C/c2ccc(OCC(=O)OC)cc2)S/C1=N\c1cccc(C(=O)O)c1 | 9.9
CN1C(=O)/C(=C/c2cccc(O)c2)S/C1=N\c1cccc(C(=O)O)c1 | 56.8
CN1C(=O)/C(=C/c2ccc([N+](=O)[O-])cc2)S/C1=N\c1cccc(C(=O)O)c1 | 51.8
C=CCN1C(=O)/C(=C/c2ccccc2OCC(=O)O)S/C1=N\c1cccc(C(=O)O)c1 | 25.4
CN1C(=O)/C(=C/c2ccccc2Br)S/C1=N\c1cccc(C(=O)O)c1 | 50.5
CN1C(=O)/C(=C/c2ccc[nH]2)S/C1=N\c1cccc(C(=O)O)c1 | 58.4
CCN1C(=O)/C(=C/c2ccc(C)cc2)S/C1=N\c1cccc(C(=O)O)c1 | 41.7

SMILES | inhibition [%]
CCCCN1C(=O)/C(=C/c2ccc(OCC(=O)OC)cc2)S/C1=N\c1cccc(C(C)=O)c1 | 0
CCN1C(=O)/C(=C/c2ccc(OCC(=O)O)cc2)S/C1=N\c1cccc(C(=O)O)c1 | 36.9
COC(=O)COc1ccccc1/C=C1\S/C(=N\c2cccc(C(=O)O)c2)N(C(C)C)C1=O | 55.7
CN1C(=O)/C(=C/c2cnccc2C(F)(F)F)S/C1=N\c1cccc(C(=O)O)c1 | 34.4
Cc1cccc(/C=C2\S/C(=N\c3cccc(C(=O)O)c3)N(C)C2=O)c1 | 49.6
CCN1C(=O)/C(=C/c2ccccc2OCC(=O)O)S/C1=N\c1cccc(C(=O)O)c1 | 15.9
CCN1C(=O)/C(=C/c2c[nH]c3ccccc23)S/C1=N\c1cccc(C(=O)O)c1 | 61.9
CCN1C(=O)/C(=C/c2ccc(OCc3ccccc3)cc2)S/C1=N\c1cccc(C(=O)O)c1 | 81.1
CCCCN1C(=O)/C(=C/c2ccc(O)cc2)S/C1=N\c1cccc(C(C)=O)c1 | 25.1
CCN1C(=O)/C(=C/c2ccccn2)S/C1=N\c1cccc(C(=O)O)c1 | 38.7
Cc1ccc(/C=C2\S/C(=N\c3cccc(C(=O)O)c3)N(C)C2=O)cc1 | 45.6
CN1C(=O)/C(=C/c2ccc(Cl)c(Cl)c2)S/C1=N\c1cccc(C(=O)O)c1 | 60
CCN1C(=O)/C(=C/c2ccccc2Cl)S/C1=N\c1cccc(C(=O)O)c1 | 43.3
CCN1C(=O)/C(=C/c2ccc(OCC(=O)O)cc2)S/C1=N\c1cccc(C(C)=O)c1 | 10
CC(=O)c1cccc(/N=C2\S/C(=C\c3ccc(O)cc3)C(=O)N2C(C)C)c1 | 8.2
CCN1C(=O)/C(=C/c2ccccc2)S/C1=N\c1cccc(C(=O)O)c1 | 39.3
CCN1C(=O)/C(=C/c2ccc(OCC(=O)OC)cc2)S/C1=N\c1cccc(C(C)=O)c1 | 8.2
CCN1C(=O)/C(=C/c2ccccc2Br)S/C1=N\c1cccc(C(=O)O)c1 | 54.1
CCCN1C(=O)/C(=C/c2ccc(OCC(=O)OC)cc2)S/C1=N\c1cccc(C(=O)O)c1 | 0
CN1C(=O)/C(=C/c2ccc(C(F)(F)F)cc2)S/C1=N\c1cccc(C(=O)O)c1 | 72.1
COC(=O)COc1ccccc1/C=C1\S/C(=N\c2cccc(C(=O)O)c2)N(C)C1=O | 56.3
CCCN1C(=O)/C(=C/c2ccc(OCC(=O)O)cc2)S/C1=N\c1cccc(C(C)=O)c1 | 0
C=CCN1C(=O)/C(=C/c2ccc(OCC(=O)O)cc2)S/C1=N\c1cccc(C(=O)O)c1 | 1.4

SMILES | inhibition [%]
CCN1C(=O)/C(=C/c2ccc(N(C)C)cc2)S/C1=N\c1cccc(C(=O)O)c1 | 52.4
CC(=O)c1cccc(/N=C2\S/C(=C\c3ccc(OCC(=O)O)cc3)C(=O)N2C(C)C)c1 | 10.2
CCN1C(=O)/C(=C/c2ccco2)S/C1=N\c1cccc(C(=O)O)c1 | 29.2
CCN1C(=O)/C(=C/c2ccc(O)cc2)S/C1=N\c1cccc(C(C)=O)c1 | 3.4
C=CCN1C(=O)/C(=C/c2ccc(OCC(=O)OC)cc2)S/C1=N\c1cccc(C(=O)O)c1 | 19.9
CN1C(=O)/C(=C/c2ccccc2)S/C1=N\c1cccc(C(=O)O)c1 | 52.2
CCCN1C(=O)/C(=C/c2ccc(OCC(=O)OC)cc2)S/C1=N\c1cccc(C(C)=O)c1 | 0
CN1C(=O)/C(=C/c2ccco2)S/C1=N\c1cccc(C(=O)O)c1 | 30.1
CN1C(=O)/C(=C/c2ccc(Br)cc2)S/C1=N\c1cccc(C(=O)O)c1 | 70.5
CC(C)N1C(=O)/C(=C/c2ccc(OCC(=O)O)cc2)S/C1=N\c1cccc(C(=O)O)c1 | 12.6
CCCCN1C(=O)/C(=C/c2ccc(O)cc2)S/C1=N\c1cccc(C(=O)O)c1 | 78.5
CN1C(=O)/C(=C/c2ccc(Cl)cc2Cl)S/C1=N\c1cccc(C(=O)O)c1 | 57.4
CCN1C(=O)/C(=C/c2cccc(O)c2)S/C1=N\c1cccc(C(=O)O)c1 | 52.8
CN1C(=O)/C(=C/c2ccccc2O)S/C1=N\c1cccc(C(=O)O)c1 | 62.7
CCCCN1C(=O)/C(=C/c2ccc(OCC(=O)O)cc2)S/C1=N\c1cccc(C(C)=O)c1 | 24.1
C=CCN1C(=O)/C(=C/c2ccc(OCC(=O)OC)cc2)S/C1=N\c1cccc(C(C)=O)c1 | 10.9
CN1C(=O)/C(=C/c2ccc(Cl)cc2)S/C1=N\c1cccc(C(=O)O)c1 | 59.7
CCCN1C(=O)/C(=C/c2ccc(O)cc2)S/C1=N\c1cccc(C(C)=O)c1 | 10.7
C=CCN1C(=O)/C(=C/c2ccc(OCC(=O)O)cc2)S/C1=N\c1cccc(C(C)=O)c1 | 0
CCN1C(=O)/C(=C/c2ccc(Cl)c(Cl)c2)S/C1=N\c1cccc(C(=O)O)c1 | 37.8
CCCCN1C(=O)/C(=C/c2ccc(OCC(=O)O)cc2)S/C1=N\c1cccc(C(=O)O)c1 | 0
CCCN1C(=O)/C(=C/c2ccc(OCC(=O)O)cc2)S/C1=N\c1cccc(C(=O)O)c1 | 0
